{
  "source": "paper PMC7764284",
  "about": "“Determination of the Synthetic Cannabinoids JWH-122, JWH-210, UR-144 in Oral Fluid of Consumers by GC-MS and Quantification of Parent Compounds and Metabolites by UHPLC-MS/MS” (International Journal of Molecular Sciences, 2020)",
  "key": {"[1]": {"assay": "Oral fluid concentration-time course of SCs and metabolites in consumers after smoking self-administration (GC-MS and UHPLC-HRMS)", "conditions": "for second peak concentration in OF: after the decrease at 3 h"}, "[2]": {"set-up": "method as in PMID 21871150", "conditions": "oral fluid; after smoking two types of herbal products; cited from earlier work"}, "[3]": {"conditions": "consumer smoked JWH-210 3 mg, UHPLC-HRMS"}, "[4]": {"conditions": "female, human, po, 3 mg, peak concentration (Cmax) in OF, consumer smoked JWH-210 3 mg, by UHPLC-HRMS, at 20 min"}, "[5]": {"conditions": "female, human, po, 3 mg, second peak concentration (Cmax) in OF, consumer smoked JWH-210 3 mg, UHPLC-HRMS, after 2 h"}},
  "data": [
    {"smiles": "CCc1ccc(C(=O)c2cn(CCCC(C)O)c3ccccc23)c2ccccc12", "note": "(centres unmarked) [JWH-210 N-(4-OH), (4-ethylnaphthalen-1-yl)(1-(4-hydroxypentyl)-1H-indol-3-yl)methanone]", "values": [
      {"measurement": "time of second peak concentration", "setting": "[1]; [3]", "result": 2, "unit": "h"},
      {"measurement": "Tmax", "setting": "[1]; female, human, po, 3 mg", "result": 20, "unit": "min"},
      {"measurement": "Cmax", "setting": "[1]; [4]", "result": 0.29, "unit": "ng/mL"},
      {"measurement": "Cmax", "setting": "[1]; [5]", "result": 0.98, "unit": "ng/mL"}
    ]},
    {"smiles": "Cc1ccc(C(=O)c2cn(CCCC(C)O)c3ccccc23)c2ccccc12", "note": "(centres unmarked) [JWH-122 N-(4-OH), (1-(4-hydroxypentyl)-1H-indol-3-yl)(4-methylnaphthalen-1-yl)methanone]", "values": [
      {"measurement": "concentration range in OF", "setting": "[1]; consumer smoked JWH-122 1 mg, UHPLC-HRMS, between 10 min and 3 h after smoking", "result": "0.29 to 0.36", "unit": "ng/mL"},
      {"measurement": "concentration at 20 min", "setting": "[1]; female, human, po, 1 mg", "result": 0.29, "unit": "ng/mL"}
    ]},
    {"smiles": "CCCCCn1cc(C(=O)c2ccc(C)c3ccccc23)c2ccccc21", "note": "[JWH-122, (4-methyl-1-naphthalenyl)(1-pentyl-1H-indol-3-yl)-methanone]", "values": [
      {"measurement": "second peak concentration in OF", "setting": "[1]; consumer smoked JWH-122 1 mg, by GC-MS", "result": 2.00, "unit": "ng/mL"},
      {"measurement": "second peak concentration in OF", "setting": "[1]; consumer smoked JWH-122 1 mg, by UHPLC-HRMS", "result": 1.60, "unit": "ng/mL"},
      {"measurement": "Tmax", "setting": "[1]; female, human, po, 1 mg", "result": 20, "unit": "min"},
      {"measurement": "Cmax", "setting": "[1]; female, human, po, 1 mg, peak concentration (Cmax) in OF, consumer smoked JWH-122 1 mg, by GC-MS, at 20 min", "result": 4, "unit": "ng/mL"},
      {"measurement": "Cmax", "setting": "[1]; female, human, po, 1 mg, peak concentration (Cmax) in OF, consumer smoked JWH-122 1 mg, by UHPLC-HRMS, at 20 min", "result": 3.14, "unit": "ng/mL"}
    ]},
    {"smiles": "CCc1ccc(C(=O)c2cn(CCCCCO)c3ccccc23)c2ccccc12", "note": "[JWH-210 N-(5-OH), (4-ethylnaphthalen-1-yl)(1-(5-hydroxypentyl)-1H-indol-3-yl)methanone]", "values": [
      {"measurement": "time of second peak concentration", "setting": "[1]; [3]", "result": 2, "unit": "h"},
      {"measurement": "Tmax", "setting": "[1]; female, human, po, 3 mg", "result": 20, "unit": "min"},
      {"measurement": "Cmax", "setting": "[1]; [4]", "result": 0.66, "unit": "ng/mL"},
      {"measurement": "Cmax", "setting": "[1]; [5]", "result": 0.61, "unit": "ng/mL"}
    ]},
    {"smiles": "Cc1ccc(C(=O)c2cn(CCCCCO)c3ccccc23)c2ccccc12", "note": "[JWH-122 N-(5-OH), (1-(5-hydroxypentyl)-1H-indol-3-yl)(4-methylnaphthalen-1-yl)-methanone]", "values": [
      {"measurement": "detection of metabolite in OF", "setting": "[1]; consumer smoked JWH-122 1 mg, UHPLC-HRMS", "result": "only detected in traces under the LOQ"}
    ]},
    {"smiles": "CCCCCn1cc(C(=O)C2C(C)(C)C2(C)C)c2ccccc21", "note": "[UR-144, (1-pentyl-1H-indol-3-yl)(2,2,3,3-tetramethylcyclopropyl)-methanone]", "values": [
      {"measurement": "time peak from smoking start", "setting": "[1]; consumer smoked UR-144 1 mg", "result": 20, "unit": "min"},
      {"measurement": "time to decrease to undetectable values in OF", "setting": "[1]; consumer smoked UR-144 1 mg", "result": "≤ 4", "unit": "h"},
      {"measurement": "Cmax", "setting": "[1]; male, human, po, 1 mg, Cmax in OF, consumer smoked UR-144 1 mg, by GC-MS, at 20 min", "result": 7.4, "unit": "ng/mL"},
      {"measurement": "Cmax", "setting": "[1]; male, human, po, 1 mg, Cmax in OF, consumer smoked UR-144 1 mg, by UHPLC-HRMS, at 20 min", "result": 6.81, "unit": "ng/mL"}
    ]},
    {"smiles": "CCCCCn1cc(C(=O)c2cccc3ccccc23)c2ccccc21", "note": "[JWH-018]", "values": [
      {"measurement": "time of peak OF concentration", "setting": "[2]", "result": 20, "unit": "min"}
    ]},
    {"smiles": "CC1(C)C(C(=O)c2cn(CCCCCO)c3ccccc23)C1(C)C", "note": "[UR-144 N-(5-OH), [1-(5-hydroxypentyl)-1H-indol-3-yl](2,2,3,3-tetramethylcyclopropyl)-methanone]", "values": [
      {"measurement": "detection of metabolite in OF", "setting": "[1]; consumer smoked UR-144 1 mg, UHPLC-HRMS, all the time-course", "result": "only detected in traces"}
    ]},
    {"smiles": "CCCCCn1cc(C(=O)c2ccc(CC)c3ccccc23)c2ccccc21", "note": "[JWH-210, (4-ethyl-1-naphthalenyl)(1-pentyl-1H-indol-3-yl)-methanone]", "values": [
      {"measurement": "time after which undetectable in OF", "setting": "[1]; consumer smoked JWH-210 3 mg", "result": 3, "unit": "h"},
      {"measurement": "Tmax", "setting": "[1]; female, human, po, 3 mg", "result": 20, "unit": "min"},
      {"measurement": "Cmax", "setting": "[1]; female, human, po, 3 mg, peak concentration (Cmax) in OF, consumer smoked JWH-210 3 mg, by GC-MS, at 20 min", "result": 8.1, "unit": "ng/mL"},
      {"measurement": "Cmax", "setting": "[1]; [4]", "result": 7.3, "unit": "ng/mL"}
    ]}
  ]
}
